One series has as its target PI3K p110 beta/p85 alpha (Homo sapiens, UniProt P42338).
Series [1] can be described thus: Drug metabolism in human liver microsomes assessed as disappearance of parent compound at 5 uM preincubated for 3 mins followed UDPG addition and measured after 120 mins by UPLC-MS/MS analysis. The series is classed as ADME, microsome. The note with it: read-out: Drug metabolism. (Liver microsomes are vesicles of endoplasmic reticulum, rich in cytochrome P450 enzymes.)

Series [2] can be described thus: Half life in Wistar rat lung at 0.3 mg/kg, it administered as suspension. The series is classed as ADME, organism-based. The conditions noted are these: inhaled or intranasal.
Series [3] is described as follows: AUC in Wistar rat lung at 0.3 mg/kg, it administered as suspension. The series is classed as ADME, organism-based. The note with it: in vivo, inhaled_or_intranasal.
The nature of series [4]: Half life in Wistar rat at 1 mg/kg, iv. The conditions noted are these: in vivo. The series is classed as ADME, organism-based.
Series [5] can be described thus: Cmax in Wistar rat lung at 0.3 mg/kg, it administered as suspension. The series is classed as ADME, organism-based. On the set-up: dose 0.3 mg/kg. The conditions noted are these: inhaled or intranasal.
Series [6] is described as follows: Ratio of AUC in lung to plasma of Wistar rat at 0.015 mg/kg, it administered as solution. The note with it: Wistar, lung and plasma, inhaled or intranasal. The series is classed as ADME, organism-based.
Series [7] can be described thus: AUC in Wistar rat plasma at 0.015 mg/kg, it administered as solution. The series is classed as ADME, organism-based. The conditions noted are these: inhaled or intranasal.
A short description of series [8]: Thermodynamic aqueous solubility of the compound at pH 7.4. The series is classed as physicochemical. The note with it: buffer, read-out: Therm_solubility.
Series [9] has as its target PI3-kinase p110-delta/p85-alpha (Homo sapiens, UniProt O00329).
Description: Inhibition of recombinant human N-terminal His-tagged full length p110delta/recombinant human full length p85alpha using PIP2 as substrate preincubated for 30 mins followed by substrate addition by HTRF assay
A short description of series [10]: AUC in Wistar rat at 1 mg/kg, iv. The series is classed as ADME, organism-based. The note with it: in vivo.
Series [11] is described as follows: Oral bioavailability in Wistar rat at 1 mg/kg. The series is classed as ADME, organism-based. The conditions noted are these: in vivo.
A short description of series [12]: Ratio of AUC in lung to plasma of Wistar rat at 0.3 mg/kg, it administered as suspension. The series is classed as ADME, organism-based. The conditions noted are these: Wistar, lung and plasma, inhaled or intranasal.
In series [13] the test system is Rattus norvegicus. The series is described as follows: Anti-inflammatory activity in Brown Norway rat model of ovalbumin-induced inflammation assessed inhibition of neutrophil infiltration in bronchoalveolar lavage at 1 mg/kg, it administered 1 hr before ovalbumin aerosol challenge and measured 24 hrs post challenge by hematology analysis relative to control. The series is classed as functional. The conditions noted are these: inhaled or nasal.

Series [14] can be described thus: Drug metabolism in human liver microsomes assessed as disappearance of parent compound at 5 uM after 30 mins in presence of NADPH by UPLC-MS/MS analysis. The series is classed as ADME, microsome. The conditions noted are these: read-out: Drug metabolism.
Series [15] in a line: AUC in Wistar rat lung at 0.015 mg/kg, it administered as solution. The series is classed as ADME, organism-based. The note with it: in vivo, inhaled_or_intranasal.
The target of series [16] is PI3-kinase p110-alpha/p85-alpha (Homo sapiens, UniProt P42336).
Chain of PI3-kinase p110-alpha/p85-alpha (P27986 whole entry): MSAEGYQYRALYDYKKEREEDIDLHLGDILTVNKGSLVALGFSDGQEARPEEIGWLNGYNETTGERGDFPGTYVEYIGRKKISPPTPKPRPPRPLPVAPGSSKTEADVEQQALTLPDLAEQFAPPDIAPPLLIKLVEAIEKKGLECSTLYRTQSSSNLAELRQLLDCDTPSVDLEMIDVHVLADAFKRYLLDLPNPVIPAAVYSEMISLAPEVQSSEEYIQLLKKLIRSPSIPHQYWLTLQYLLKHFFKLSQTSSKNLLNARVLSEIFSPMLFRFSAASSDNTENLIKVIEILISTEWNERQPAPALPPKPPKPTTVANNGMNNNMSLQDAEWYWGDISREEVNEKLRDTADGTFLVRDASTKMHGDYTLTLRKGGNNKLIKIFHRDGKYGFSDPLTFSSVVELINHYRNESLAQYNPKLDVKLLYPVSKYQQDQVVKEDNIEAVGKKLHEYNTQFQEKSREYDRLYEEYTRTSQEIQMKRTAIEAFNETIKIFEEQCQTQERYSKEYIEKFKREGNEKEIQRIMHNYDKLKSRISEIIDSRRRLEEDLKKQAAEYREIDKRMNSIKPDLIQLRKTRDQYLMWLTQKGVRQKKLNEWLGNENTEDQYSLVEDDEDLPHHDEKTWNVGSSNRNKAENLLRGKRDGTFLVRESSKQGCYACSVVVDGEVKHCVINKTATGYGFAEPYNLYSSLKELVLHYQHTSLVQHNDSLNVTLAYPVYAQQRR
Chain of PI3-kinase p110-alpha/p85-alpha (P42336 whole entry): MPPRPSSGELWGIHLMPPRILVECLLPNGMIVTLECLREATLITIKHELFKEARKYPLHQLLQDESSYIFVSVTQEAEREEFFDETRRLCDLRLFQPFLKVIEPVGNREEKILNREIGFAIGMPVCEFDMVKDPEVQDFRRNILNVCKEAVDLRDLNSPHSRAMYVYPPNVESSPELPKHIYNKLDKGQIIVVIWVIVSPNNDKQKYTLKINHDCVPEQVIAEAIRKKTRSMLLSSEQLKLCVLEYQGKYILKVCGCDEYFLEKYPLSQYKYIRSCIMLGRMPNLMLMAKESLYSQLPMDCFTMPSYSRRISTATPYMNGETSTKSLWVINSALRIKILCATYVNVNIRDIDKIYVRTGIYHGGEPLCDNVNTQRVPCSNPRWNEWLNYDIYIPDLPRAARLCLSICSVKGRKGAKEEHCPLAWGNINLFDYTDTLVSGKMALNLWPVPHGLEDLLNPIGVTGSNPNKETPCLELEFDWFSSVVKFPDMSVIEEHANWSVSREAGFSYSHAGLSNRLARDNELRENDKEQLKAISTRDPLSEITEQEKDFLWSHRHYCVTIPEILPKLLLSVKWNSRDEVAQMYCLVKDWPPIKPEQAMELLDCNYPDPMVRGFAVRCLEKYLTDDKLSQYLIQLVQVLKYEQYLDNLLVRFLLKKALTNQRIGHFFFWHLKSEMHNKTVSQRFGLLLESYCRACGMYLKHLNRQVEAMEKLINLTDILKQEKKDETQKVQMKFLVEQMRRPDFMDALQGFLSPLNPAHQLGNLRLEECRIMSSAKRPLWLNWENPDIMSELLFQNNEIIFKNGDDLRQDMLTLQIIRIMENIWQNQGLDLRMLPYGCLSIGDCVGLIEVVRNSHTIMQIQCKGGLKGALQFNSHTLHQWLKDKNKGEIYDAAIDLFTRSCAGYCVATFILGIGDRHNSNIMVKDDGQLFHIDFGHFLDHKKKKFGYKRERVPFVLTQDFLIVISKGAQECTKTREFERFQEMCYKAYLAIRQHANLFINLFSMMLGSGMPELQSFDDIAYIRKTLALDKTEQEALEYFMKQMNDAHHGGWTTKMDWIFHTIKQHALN
Description: Inhibition of recombinant human N-terminal His6-tagged full length p110alpha/recombinant human full length p85alpha using PIP2 as substrate preincubated for 30 mins followed by substrate addition by HTRF assay
Series [17] is described as follows: AUC in Wistar rat plasma at 0.3 mg/kg, it administered as suspension. The series is classed as ADME, organism-based. The note with it: inhaled or intranasal.
Series [18] can be described thus: Cmax in Wistar rat at 1 mg/kg, iv. The series is classed as ADME, organism-based. On the set-up: dose 1 mg/kg, route intravenous. The note with it: in vivo.
Series [19] is described as follows: Drug metabolism in rat liver microsomes assessed as disappearance of parent compound at 5 uM after 30 mins in presence of NADPH by UPLC-MS/MS analysis. The series is classed as ADME, microsome. The note with it: read-out: Drug metabolism.
A short description of series [20]: Apparent permeability of the compound at 20 uM by PAMPA assay. The series is classed as ADME.
Series [21] concerns the target Phosphatidylinositol 4,5-bisphosphate 3-kinase catalytic subunit gamma isoform (Homo sapiens, UniProt P48736). Briefly: Inhibition of recombinant human N-terminal His6-tagged full length p110gamma using PIP2 as substrate preincubated for 30 mins followed by substrate addition by HTRF assay. Background: Time-resolved FRET reads energy transfer from a long-lived donor to a nearby acceptor.

Series [22] is described as follows: Protein binding in rat plasma at 1 uM by equilibrium dialysis. The series is classed as ADME, cell-free. The conditions noted are these: read-out: PPB (converted).
Series [23] is described as follows: Volume of distribution at steady state in Wistar rat at 1 mg/kg, iv. The series is classed as ADME, organism-based. The conditions noted are these: in vivo, read-out: Vdss.
Series [24] is described as follows: Cmax in Wistar rat plasma at 0.015 mg/kg, it administered as solution. The series is classed as ADME, organism-based. The note with it: inhaled or intranasal. On the set-up: dose 0.015 mg/kg.
Series [25] is described as follows: Half life in Wistar rat plasma at 0.015 mg/kg, it administered as solution. The conditions noted are these: inhaled or intranasal. The series is classed as ADME, organism-based.
The nature of series [26]: Half life in Wistar rat plasma at 0.3 mg/kg, it administered as suspension. The series is classed as ADME, organism-based. The note with it: inhaled or intranasal.
A short description of series [27]: Clearance in Wistar rat at 1 mg/kg, iv. The series is classed as ADME, organism-based. The note with it: in vivo.
Series [28] can be described thus: Cmax in Wistar rat lung at 0.015 mg/kg, it administered as solution. The series is classed as ADME, organism-based. Also noted: dose 0.015 mg/kg. The conditions noted are these: inhaled or intranasal.
The target in series [29] is T1, Phosphatidylinositol 4,5-bisphosphate 3-kinase catalytic subunit delta isoform (Homo sapiens, UniProt O00329).
T1 sequence (O00329 whole entry): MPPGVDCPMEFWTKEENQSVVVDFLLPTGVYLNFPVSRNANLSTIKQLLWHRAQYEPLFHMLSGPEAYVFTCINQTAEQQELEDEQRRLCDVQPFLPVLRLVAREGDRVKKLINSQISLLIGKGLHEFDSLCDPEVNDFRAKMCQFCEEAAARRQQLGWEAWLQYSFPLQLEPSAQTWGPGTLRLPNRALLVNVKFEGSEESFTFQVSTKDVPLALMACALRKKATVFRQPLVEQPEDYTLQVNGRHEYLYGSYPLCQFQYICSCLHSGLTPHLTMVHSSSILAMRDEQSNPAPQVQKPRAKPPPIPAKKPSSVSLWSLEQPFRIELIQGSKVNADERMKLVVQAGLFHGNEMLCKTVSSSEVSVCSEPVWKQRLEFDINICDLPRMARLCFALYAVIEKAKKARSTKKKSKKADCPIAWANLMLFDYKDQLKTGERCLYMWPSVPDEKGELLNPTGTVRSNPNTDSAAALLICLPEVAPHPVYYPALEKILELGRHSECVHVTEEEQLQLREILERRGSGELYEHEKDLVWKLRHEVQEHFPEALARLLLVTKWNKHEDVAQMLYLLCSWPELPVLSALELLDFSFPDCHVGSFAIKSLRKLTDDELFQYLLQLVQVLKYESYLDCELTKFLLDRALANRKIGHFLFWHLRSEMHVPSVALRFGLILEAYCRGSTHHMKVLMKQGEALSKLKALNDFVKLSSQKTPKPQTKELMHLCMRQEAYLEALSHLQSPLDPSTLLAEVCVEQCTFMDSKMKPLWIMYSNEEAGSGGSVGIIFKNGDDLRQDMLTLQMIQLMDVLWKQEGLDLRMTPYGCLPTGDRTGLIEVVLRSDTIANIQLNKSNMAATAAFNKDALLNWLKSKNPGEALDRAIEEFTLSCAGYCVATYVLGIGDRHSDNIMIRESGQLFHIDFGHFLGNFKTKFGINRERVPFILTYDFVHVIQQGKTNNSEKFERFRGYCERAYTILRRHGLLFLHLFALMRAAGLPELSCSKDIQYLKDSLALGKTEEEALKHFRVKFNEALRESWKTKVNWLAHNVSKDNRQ
The series is described as follows: Inhibition of PI3Kdelta in human THP-1 cells assessed as reduction in M-CSF-stimulated AKT phosphorylation at Thr308 preincubated for 30 mins followed by M-CSF addition for 3 mins by ELISA. The series is classed as cell-based. On the technique in general: ELISA stands for enzyme-linked immunosorbent assay.

Series [30] in a line: Drug metabolism in rat liver microsomes assessed as disappearance of parent compound at 5 uM preincubated for 3 mins followed UDPG addition and measured after 120 mins by UPLC-MS/MS analysis. The series is classed as ADME, microsome. The conditions noted are these: read-out: Drug metabolism.
Series [31] can be described thus: Half life in Wistar rat lung at 0.015 mg/kg, it administered as solution. The series is classed as ADME, organism-based. The note with it: inhaled or intranasal.
Series [32] deals with Rattus norvegicus. Briefly: Anti-inflammatory activity in Brown Norway rat model of ovalbumin-induced inflammation assessed inhibition of neutrophil infiltration in bronchoalveolar lavage at 0.3 mg/kg, it administered 1 hr before ovalbumin aerosol challenge and measured 24 hrs post challenge by hematology analysis relative to control. The note with it: inhaled or nasal. The series is classed as functional.

Series [33] relates to Rattus norvegicus. The series is described as follows: Anti-inflammatory activity in Brown Norway rat model of ovalbumin-induced inflammation assessed inhibition of eosinophil infiltration in bronchoalveolar lavage at 0.3 mg/kg, it administered 1 hr before ovalbumin aerosol challenge and measured 24 hrs post challenge by hematology analysis relative to control. The note with it: inhaled or nasal. The series is classed as functional.

Values after ≈ are worked out from the molar mass of the structure shown.

From ChEMBL document CHEMBL4152386, “Discovery of a Novel Inhaled PI3Kδ Inhibitor for the Treatment of Respiratory Diseases” (J Med Chem, 2018) come the findings set out here.

Chain of PI3-kinase p110-delta/p85-alpha (P27986 whole entry, one chain of several): as the sequence (P27986 whole entry) above
Chain of PI3K p110 beta/p85 alpha (P27986 whole entry): as above
Chain of PI3K p110 beta/p85 alpha (P42338 whole entry): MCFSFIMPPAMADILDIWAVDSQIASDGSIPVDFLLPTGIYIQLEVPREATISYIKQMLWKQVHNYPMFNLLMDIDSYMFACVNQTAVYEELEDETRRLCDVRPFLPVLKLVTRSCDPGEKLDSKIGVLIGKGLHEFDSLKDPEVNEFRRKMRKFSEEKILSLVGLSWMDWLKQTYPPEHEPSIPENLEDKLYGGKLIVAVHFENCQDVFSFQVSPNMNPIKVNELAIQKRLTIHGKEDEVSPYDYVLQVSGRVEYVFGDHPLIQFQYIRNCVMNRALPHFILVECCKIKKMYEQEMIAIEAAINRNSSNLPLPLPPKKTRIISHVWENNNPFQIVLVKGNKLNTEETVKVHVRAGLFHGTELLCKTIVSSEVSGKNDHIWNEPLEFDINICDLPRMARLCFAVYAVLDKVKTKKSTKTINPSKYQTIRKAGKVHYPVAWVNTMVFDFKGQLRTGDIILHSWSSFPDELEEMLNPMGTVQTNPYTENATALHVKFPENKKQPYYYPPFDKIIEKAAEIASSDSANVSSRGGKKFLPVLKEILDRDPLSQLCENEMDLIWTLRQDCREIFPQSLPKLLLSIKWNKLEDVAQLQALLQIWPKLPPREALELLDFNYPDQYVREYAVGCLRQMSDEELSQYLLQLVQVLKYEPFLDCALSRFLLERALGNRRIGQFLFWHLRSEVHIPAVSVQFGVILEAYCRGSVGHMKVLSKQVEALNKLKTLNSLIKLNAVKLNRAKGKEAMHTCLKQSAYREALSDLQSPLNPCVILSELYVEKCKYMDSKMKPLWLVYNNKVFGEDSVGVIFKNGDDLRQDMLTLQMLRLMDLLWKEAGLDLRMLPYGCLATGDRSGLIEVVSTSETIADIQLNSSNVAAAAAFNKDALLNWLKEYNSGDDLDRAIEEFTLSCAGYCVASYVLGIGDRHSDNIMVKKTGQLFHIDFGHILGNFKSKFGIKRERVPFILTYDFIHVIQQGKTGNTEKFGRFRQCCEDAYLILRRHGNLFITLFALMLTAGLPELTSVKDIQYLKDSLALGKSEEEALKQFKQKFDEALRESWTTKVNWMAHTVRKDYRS
Chain of Phosphatidylinositol 4,5-bisphosphate 3-kinase catalytic subunit gamma isoform (P48736 whole entry, canonical isoform): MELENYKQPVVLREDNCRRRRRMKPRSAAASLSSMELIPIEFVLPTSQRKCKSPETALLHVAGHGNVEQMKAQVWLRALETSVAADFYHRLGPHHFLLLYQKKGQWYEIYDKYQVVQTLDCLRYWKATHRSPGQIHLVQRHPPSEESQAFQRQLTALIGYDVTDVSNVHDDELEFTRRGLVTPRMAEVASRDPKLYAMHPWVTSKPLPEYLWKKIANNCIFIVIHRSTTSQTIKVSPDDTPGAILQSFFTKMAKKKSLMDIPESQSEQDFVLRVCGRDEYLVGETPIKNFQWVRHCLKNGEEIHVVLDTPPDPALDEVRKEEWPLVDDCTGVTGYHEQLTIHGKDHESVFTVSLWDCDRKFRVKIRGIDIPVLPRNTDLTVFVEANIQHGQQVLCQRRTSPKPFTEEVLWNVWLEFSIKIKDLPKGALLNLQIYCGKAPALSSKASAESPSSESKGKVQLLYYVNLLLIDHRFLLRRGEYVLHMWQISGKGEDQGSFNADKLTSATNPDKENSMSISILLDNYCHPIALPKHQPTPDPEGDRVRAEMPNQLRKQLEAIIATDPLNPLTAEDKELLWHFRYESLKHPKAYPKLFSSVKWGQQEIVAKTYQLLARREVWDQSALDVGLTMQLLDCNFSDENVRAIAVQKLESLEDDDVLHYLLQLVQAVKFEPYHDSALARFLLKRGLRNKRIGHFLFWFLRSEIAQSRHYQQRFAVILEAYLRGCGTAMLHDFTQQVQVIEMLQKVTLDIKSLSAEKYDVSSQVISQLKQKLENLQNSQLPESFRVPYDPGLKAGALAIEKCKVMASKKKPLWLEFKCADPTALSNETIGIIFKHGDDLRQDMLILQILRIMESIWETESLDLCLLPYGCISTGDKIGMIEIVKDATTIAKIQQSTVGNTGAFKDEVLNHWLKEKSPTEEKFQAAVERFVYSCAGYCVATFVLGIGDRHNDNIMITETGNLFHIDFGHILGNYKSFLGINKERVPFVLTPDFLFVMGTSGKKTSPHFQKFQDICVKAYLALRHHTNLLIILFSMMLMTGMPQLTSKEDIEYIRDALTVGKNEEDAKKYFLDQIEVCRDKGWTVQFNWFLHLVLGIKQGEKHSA
Description for PI3K p110 beta/p85 alpha: Inhibition of recombinant human N-terminal His6-tagged full length p110beta/recombinant human full length p85alpha using PIP2 as substrate preincubated for 30 mins followed by substrate addition and HTRF assay

Take `Cc1ccn2nc([C@H](C)Nc3ncnc(N)c3-c3ccc(O)c(F)c3)n(-c3ccccc3)c(=O)c12`: the IC50 against PI3K p110 beta/p85 alpha came to 87 nM; in series [9], 0.5 nM; in series [16] it was 1100 nM; in series [21], 11 nM; in series [29] it was 4.4 nM. Further, the metabolised at 2 h, 5 µM in [1] stood at 97%; in [30] it was 96%. The half-life in series [2] is 5.7 h; in series [4], 1 h; in series [25], 0.7 h; in series [26], 1.1 h; in series [31], 4.7 h. Moreover, the AUC in [3] was found to be 30.6 µg·h/g; in series [7], 6.4 ng·h/mL; in series [10], 149 ng·h/mL; in series [15], 0.2 µg·h/g; in series [17], 148 ng·h/mL. Besides, the Cmax in [5] was 18600 ng/g; in series [18], 236 ng/mL; in [24], 36.3 ng/mL; in series [28] it was 700 ng/g. The Kp in series [6] worked out at 31; in [12] it was 207. For the same molecule, in series [8], the solubility thermodynamic was 36 µg/mL (≈ 76.4 µM). The molecule further returned a bioavailability in series [11] of 13%. Further, the inhibition in vivo at 1 mg/kg in the series with Rattus norvegicus [13] is 37%. Also, the metabolised at 0.5 h, 5 µM was determined as 71% in series [14] and 44% in [19]. The Papp at 20 µM in series [20] was found to be 1.7 ×10⁻⁶ cm/s. In addition, the fraction unbound at 1 µM in series [22] was 0.054. Further, the Vd in series [23] was determined as 5.2 L/kg. Moreover, the clearance in series [27] stood at 112 mL/min/kg.
With `C[C@@H]1C[C@H]2[C@@H]3C[C@H](F)C4=CC(=O)C=C[C@]4(C)[C@@]3(F)[C@@H](O)C[C@]2(C)[C@@]1(O)C(=O)SCF` [FLUTICASONE], the inhibition in vivo at 0.3 mg/kg is 89% in the series with Rattus norvegicus [32] and 82% in the series with Rattus norvegicus [33].

As a reminder, the IC50 is the midpoint of a concentration-inhibition curve. The half-life is how long it takes for the measured level to halve. Usually Cmax stands for the peak of the concentration-time curve. In general, Kp refers to the ratio of the level in a tissue or fluid to that in plasma or blood. For orientation: bioavailability means the share of a dose that reaches the circulation, judged against a reference dose that is usually intravenous. Read a high bioavailability as much systemic uptake. In general, inhibition in vivo refers to the change of the read-out against control, counted positive when it falls. The Papp is a coefficient for how fast a substance crosses the barrier. Usually clearance stands for the volume of plasma or blood freed of the substance per unit of time. Higher therefore signals a high capacity for elimination.
